The target in experiment [1] is T1, CpLIP2 lipase (Candida parapsilosis, UniProt Q8NIN8). The experiment can be described thus: Inhibition of CpLIP2 hydrolytic activity (ethyl oleate hydrolysis, GC). It is filed as biochemical. The following applies: for Ki: non-competitive or uncompetitive model. Here is the method: The effect of inhibitor concentrations on the hydrolysis reaction rate in standard conditions was assumed to follow either a non-competitive or an uncompetitive model, corresponding to Equation (1):(1) Ki=I/ V0/Vi−1 where V0 and Vi are the initial rates of the reaction without or with inhibitor at concentration I.
Standard CpLIP2 hydrolytic activity measurement. Hydrolysis activities were determined by measuring the initial rates of fatty acid and esters production (µmol·min^−1·mL^−1), using ethyl oleate (C18:1, EE) as substrates. Specific activity is the total activity expressed in µmol·min^−1·mL^−1 in relation to protein concentration (mg·mL^−1). Experiments were conducted as described by. Hydrolysis of ethyl oleate (EO) was performed in aqueous emulsions at 30 °C. This emulsion consisted of 100 µmol·mL^−1 EO emulsified by sonication (Branson Sonifier 250, 20 s, 200 watts, 145 µm amplitude) in an aqueous solution of 20 g·L^−1 poly vinyl alcohol. The reactions of hydrolysis were prepared in glass test tube by adding 100 μL of ethyl oleate emulsion to 800 µL of sodium phosphate buffer 50 mM, pH 6.5; then the solutions were incubated in water bath at 30 °C for 5 min. The reaction was started by the addition of 100 µL of enzyme solution of CpLIP2 with final concentration 3 µg·mL^−1 with activity 2000 U/mL.
The enzyme solution was pre-incubated at 25 °C, with continuous stirring at 350 rpm. Pre-incubation was conducted with 1980 µL CpLIP2 lipase diluted in sodium NaH2PO4/Na2HPO4 phosphate buffer (50 mM, pH 6.5) containing 20 µL absolute EtOH at 2 different times (1 and 30 min). This pre-incubation phase was conducted in closed vials placed during 2 h on a Radleys StarFish Multi-Experiment Workstation. The reaction was conducted for 15 min at 30 °C, and then stopped by adding 950 µL of a mixture of ethanol/sulphuric acid (100:0.8, v/v). After the addition of 50 µL of internal standards (ethanolic solution of pentadecanoic acid and its ethyl and methyl esters, 1 µmol each), lipids were extracted from the mixture with 1 mL of hexane. Samples were then prepared for analyzing esters and free fatty acids by gas chromatography (GC) as follows. Hexane extract (200 µL) was reacted with 25 µL pyridine and 25 µL N-methyl-tri (methylsilyl)-trifluoroacetamide (MSTFA) as silylating agent. Mixtures were incubated in water bath at 50 °C for 20 min, and then samples were ready for analysis. Reaction rates were determined by the analysis of fat composition by capillary gas chromatography after 15 min reaction. It was checked that less than 30% of the total substrate was converted at the end of the 15 min reaction.
A Shimadzu GC 2010 plus gas chromatograph equipped with a flame ionization detector, an automatic sampler (injected volume 0.1 μL) and a split/splitless injector was used for analysis. The capillary column was a DB-5ht (15 m × 0.25 mm, Phenomenex, Le Pecq, France). The helium carrier flow was 1 mL min^−1and the split ratio was 1:50. Temperature conditions were, for reactions with individual substrates: injector 280 °C, detector 290 °C, oven 200–225 °C at 10 °C min^−1 then to 260 °C at 35 °C·min^−1 for ethyl ester (EE) and fatty acid (FA) of C18:1. Calibration curves were realized using emulsions of mixtures of FA and monoesters prepared according to the same protocol, without enzyme and alcohol.
In order to measure the residual lipase activity in the presence of potential inhibitors, the previous method was conducted in the presence and absence of the inhibitors. For each potential inhibitor, the lipase-catalyzed rate of hydrolysis was evaluated after a pre-incubation period between the lipase and the potential inhibitors, which were solubilized in absolute ethanol at 1% of final concentration. The preincubation was performed at 25 °C with continuous stirring at 350 rpm with different concentration of inhibitors (14, 27.5, 55 µM) which represented, respectively 25, 50, 100-fold the final lipase concentration (0.55 µM). […]

The target of experiment [2] is T1, CpLIP2 lipase. The experiment is described as follows: Fluorescence resonance energy transfer between CpLIP2 and flavonols (Förster theory). It is filed as binding. The text has this: Fluorescence emission spectra of CpLIP2 lipase overlap the UV absorption spectrum of each flavonol studied, that may induce fluorescence resonance energy transfer (FRET) governed by the binding distance r between the protein behaving as energy donor and the flavonol energy acceptor. The binding distance r can be calculated via Förster theory with the following Equations (10) and (11):(10) E=1−F/ F0=R06/ R06+r^6 where E is the energy transfer efficiency, which is the photons fraction absorbed and transferred by the donor to the acceptor, F and F0 are the fluorescence intensities of donor (CpLIP2) in the presence or absence of acceptor (flavonol) at the same concentrations. The parameter r is the distance between acceptor and donor, and R0 is the Förster distance, which is the critical energy transfer distance when 50% of the excitation energy is transferred from the donor to the acceptor. […] The value of R0 ranges from 20–90 Å for biological macromolecules.

Experiment [3] addresses T1, CpLIP2 lipase. The experiment can be described thus: Fluorescence emission spectrum of CpLIP2 inhibited by THL. It is filed as binding. The settings on record: 20-fold molar excess THL, pre-incubation at 25 °C for 30 min, excitation 285 nm. Here is the method: As mentioned above, a mixture of 300 µL was pipetted in each well. 190 µL sodium phosphate buffer 50 mM, pH 7.0 with 100 µL of NaCl: EtOH (8:2, v/v) solution. […] In parallel, native and denatured lipases without THL were incubated in the same conditions. Denaturation of lipase was done by heating in water bath at 100 °C for 20 min.

In experiment [4] the target is C. rugosa commercial lipase. Also noted: method as in doi:10.1016/j.molcatb.2006.02.012. The settings on record: cited from earlier work.

Here are results for 2 compounds from article PMC6719172, “Inhibition of CpLIP2 Lipase Hydrolytic Activity by Four Flavonols (Galangin, Kaempferol, Quercetin, Myricetin) Compared to Orlistat and Their Binding Mechanisms Studied by Quenching of Fluorescence” (Molecules, 2019).

T1 sequence (Q8NIN8 entry or part of it): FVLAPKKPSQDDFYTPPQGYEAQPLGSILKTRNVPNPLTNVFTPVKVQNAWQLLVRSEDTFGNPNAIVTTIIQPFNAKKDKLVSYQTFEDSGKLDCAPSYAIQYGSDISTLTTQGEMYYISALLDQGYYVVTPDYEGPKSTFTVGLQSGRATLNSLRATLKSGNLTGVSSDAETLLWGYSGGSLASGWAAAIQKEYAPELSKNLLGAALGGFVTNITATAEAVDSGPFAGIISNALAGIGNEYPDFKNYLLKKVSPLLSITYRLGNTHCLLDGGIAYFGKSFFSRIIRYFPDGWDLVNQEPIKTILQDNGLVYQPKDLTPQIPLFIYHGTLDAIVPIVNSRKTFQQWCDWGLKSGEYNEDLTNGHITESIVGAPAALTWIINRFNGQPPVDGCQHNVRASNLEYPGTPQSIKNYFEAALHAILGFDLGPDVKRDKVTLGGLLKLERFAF

The term Ki denotes a dissociation constant, usually derived from enzyme kinetics or from competition with a known ligand. The term inhibition denotes the percentage by which the read-out fell short of the control. In the case of `CCCCCCCCCCC[C@@H](C[C@@H]1OC(=O)[C@H]1CCCCCC)OC(=O)[C@H](CC(C)C)NC=O` [THL, tetrahydrolipstatin, reference compound], the Ki in experiment [1] (estimated after 1 min of pre-incubation) was 1.2 µM; in experiment [1] (estimated after 30 min of pre-incubation), 0.6 µM. In experiment [1] (after 1 min pre-incubation, concentration not given), the “inhibition of CpLIP2 activity” value is given as around 100%. The inhibition at 14 µM in experiment [1] (read-out: inhibition of CpLIP2 catalytic activity) was 90%. The remaining activity at 14 µM in experiment [1] (read-out: residual activity, 14 µM (25-fold molar excess), 1 min pre-incubation) came to 17.7%. The remaining activity at 27.5 µM in experiment [1] (read-out: residual activity, 27.5 µM (50-fold), 1 min pre-incubation) amounted to 3.9%. For the same compound, the remaining activity at 55 µM in experiment [1] (read-out: residual activity, 55 µM (100-fold), 1 min pre-incubation) is 2.3%. Also, in experiment [2], the “occurrence of FRET with CpLIP2 lipase” value is given as “no FRET occurred”. Also, in experiment [3], the “blue shift of CpLIP2 fluorescence emission maximum” value is on record as 4 nm.
For orientation: IC50 means the midpoint of a concentration-inhibition curve. As for (±)-catechin [reference compound], the IC50 in experiment [4] is 7500 µM.
